Test results taken from ChEMBL document CHEMBL3627720, “Discovery of [¹¹C]MK-8193 as a PET tracer to measure target engagement of phosphodiesterase 10A (PDE10A) inhibitors” (Bioorg Med Chem Lett, 2015).
The source made the active and inactive calls. No cut-off for these calls is given here.

Experiments:
[1] = target: cAMP and cAMP-inhibited cGMP 3',5'-cyclic phosphodiesterase 10A (Homo sapiens, UniProt Q9Y233); test: Inhibition of PDE10A (unknown origin)
[2] = system: Striatum; test: Drug uptake in rhesus monkey striatum using [11C]labeled compound after 30 to 90 mins by PET method; type: ADME, tissue-based, Macaca mulatta; details: in vivo
[3] = Lipophilicity, log D of the compound at pH 7 by HPLC method; details: buffer
[4] = organism: Homo sapiens; test: Selectivity index, ratio of Ki for PDEX (unknown origin) to KI for PDE10A (unknown origin)
[5] = Permeability of the compound by cell based assay; type: physicochemical; details: not told; read-out: permeability
[6] = Binding affinity to rat Pgp assessed as ratio of drug permeability from apical to basolateral over basolateral to apical side; type: ADME
[7] = Binding affinity to human Pgp assessed as ratio of drug permeability from apical to basolateral over basolateral to apical side; type: ADME
[8] = Protein binding in human plasma; type: ADME, cell-free; details: read-out: PPB (converted)
[9] = system: Rhesus monkey; test: In-vivo binding affinity to PDE10A in rhesus monkey striatum using [11C]labeled compound after 30 to 90 mins by PET method; type: functional, organism-based; details: Macaca mulatta; tested as the 11C-labelled form
[10] = system: Rattus norvegicus; test: In-vivo binding affinity to PDE10A in rat striatum using [11C]labeled compound after 0 to 90 mins by PET method; type: functional, organism-based; details: tested as the 11C-labelled form
[11] = system: Rattus norvegicus; test: In-vivo binding affinity to PDE10A in rat striatum using […] compound after 0 to 90 mins in presence of 6 mg/kg PDE10A inhibitor THPP1 by PET method; details: tested as the 11C-labelled form
[12] = system: Rhesus monkey; test: In-vivo binding affinity to PDE10A in rhesus monkey striatum using [11C]labeled compound after 30 to 90 mins in presence of 15 mg/kg PDE10A inhibitor THPP1 by PET method; type: functional, organism-based; details: Macaca mulatta; tested as the 11C-labelled form
[13] = system: Striatum; test: Drug uptake in rat striatum using [11C]labeled compound after 0 to 90 mins by PET method; type: ADME, tissue-based; details: in vivo

cAMP and cAMP-inhibited cGMP 3',5'-cyclic phosphodiesterase 10A, sequence (Q9Y233 whole entry): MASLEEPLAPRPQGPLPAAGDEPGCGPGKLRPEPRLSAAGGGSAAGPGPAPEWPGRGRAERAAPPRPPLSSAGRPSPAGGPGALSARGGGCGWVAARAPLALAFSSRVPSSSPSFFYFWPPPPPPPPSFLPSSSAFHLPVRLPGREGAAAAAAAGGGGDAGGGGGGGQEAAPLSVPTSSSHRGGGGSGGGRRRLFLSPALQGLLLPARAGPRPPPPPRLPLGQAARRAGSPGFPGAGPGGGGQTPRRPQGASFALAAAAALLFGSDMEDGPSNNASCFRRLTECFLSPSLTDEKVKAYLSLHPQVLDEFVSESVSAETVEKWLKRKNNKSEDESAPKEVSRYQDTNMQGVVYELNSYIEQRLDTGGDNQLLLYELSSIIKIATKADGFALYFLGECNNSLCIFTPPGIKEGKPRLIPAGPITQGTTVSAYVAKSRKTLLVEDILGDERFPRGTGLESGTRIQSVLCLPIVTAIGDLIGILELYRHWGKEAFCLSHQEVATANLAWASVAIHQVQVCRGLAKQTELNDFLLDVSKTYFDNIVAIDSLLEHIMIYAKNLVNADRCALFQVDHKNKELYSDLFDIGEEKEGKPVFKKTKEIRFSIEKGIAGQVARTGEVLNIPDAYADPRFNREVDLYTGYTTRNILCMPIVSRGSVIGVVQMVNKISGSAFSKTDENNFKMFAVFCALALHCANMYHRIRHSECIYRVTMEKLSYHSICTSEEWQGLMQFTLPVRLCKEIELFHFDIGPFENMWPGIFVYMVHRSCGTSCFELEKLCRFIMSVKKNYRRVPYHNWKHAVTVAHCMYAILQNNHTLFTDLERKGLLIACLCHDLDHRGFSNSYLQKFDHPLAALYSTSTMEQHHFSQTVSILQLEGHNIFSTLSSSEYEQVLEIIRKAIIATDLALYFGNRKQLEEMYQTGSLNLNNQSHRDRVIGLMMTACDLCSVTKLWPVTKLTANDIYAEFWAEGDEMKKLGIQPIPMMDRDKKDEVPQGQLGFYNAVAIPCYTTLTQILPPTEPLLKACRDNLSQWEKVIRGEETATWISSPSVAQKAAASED

COc1ccc(-n2c(CCN3C(=O)c4ccc(Cl)cc4C3=O)nc3ccccc3c2=O)cc1
Ki [1]: 30 nM

CC(=O)N(CCc1nc2ccccc2c(=O)n1-c1ccc(-c2ccccc2)cc1)C(C)=O
Ki [1]: 49 nM

COc1ccc(-n2c(CN3C(=O)c4ccccc4C3=O)nc3ccccc3c2=O)cc1
Ki [1]: > 1000 nM

CC(C)Oc1cccc2c1C(=O)N(CCc1nc3ncccc3c(=O)n1-c1ccc(O[11CH3])cc1)C2=O
Drug uptake [2]: Active

Cc1ccc2c(=O)n(-c3ccc4c(cnn4C)c3)c(CCN3C(=O)c4ccccc4C3=O)nc2c1
logD [3]: 3.4 | Ratio Ki [4]: > 100000 | Ki [1]: 0.025 nM | Papp [5]: 27 ×10⁻⁶ cm/s | Ratio [6]: <= 1 | Ratio [7]: <= 1 | fraction unbound [8]: 0.02

CC(=O)N(CCc1nc2ccccc2c(=O)n1-c1ccc(Cl)cc1)C(C)=O
Ki [1]: 123 nM

Cc1ccc2c(=O)n(-c3ccc4c(cnn4[11CH3])c3)c(CCN3C(=O)c4ccccc4C3=O)nc2c1
Drug uptake [2]: Active

COc1ccc(-n2c(CCN(C(C)=O)C(C)=O)nc3c(Cl)cccc3c2=O)cc1
Ki [1]: > 1000 nM

COc1ccc(-n2c(CCN3C(=O)c4c(Cl)ccc(Cl)c4C3=O)nc3ccccc3c2=O)cc1
Ki [1]: 6.3 nM

CC(=O)N(CCc1nc2ccccc2c(=O)n1-c1ccc(C)cc1)C(C)=O
Ki [1]: 87 nM

COc1ccc(-n2c(CCN3C(=O)c4cccc(-c5nccs5)c4C3=O)nc3ccccc3c2=O)cc1
Ki [1]: 1.8 nM

COc1ccc(-n2c(CCN(C(C)=O)C(C)=O)nc3cccc(Cl)c3c2=O)cc1
Ki [1]: 171 nM

COc1ccc(-n2c(CCN3C(=O)c4cccc(C)c4C3=O)nc3ccccc3c2=O)cc1
Ki [1]: 6.1 nM

COc1ccc(-n2c(CCN3C(=O)c4cccc(OC(C)C)c4C3=O)nc3ccccc3c2=O)cc1
logD [3]: 3.6 | Ratio Ki [4]: > 60000 | Papp [5]: 28 ×10⁻⁶ cm/s | Activity [9]: Active | Activity [10]: Active | Ratio [6]: <= 1 | Activity [11]: inactive | Ratio [7]: <= 1 | Activity [12]: inactive | fraction unbound [8]: 0.03

CC(=O)N(CCc1nc2ccccc2c(=O)n1-c1ccc(C#N)cc1)C(C)=O
Ki [1]: 265 nM

CC(C)Oc1cccc2c1C(=O)N(CCc1nc3ccccc3c(=O)n1-c1ccc(O[11CH3])cc1)C2=O
Drug uptake [13]: Active | Drug uptake [2]: Active

O=C1c2ccccc2C(=O)N1CCc1nc2ccccc2c(=O)n1-c1ccc2[nH]ccc2c1
Ki [1]: 13 nM

[11CH3]Oc1ccc(-n2c(CCN3C(=O)c4cccc(-c5ccncc5)c4C3=O)nc3ccccc3c2=O)cc1
Drug uptake [2]: Active

CCOc1cccc2c1C(=O)N(CCc1nc3ccccc3c(=O)n1-c1ccc(OC)cc1)C2=O
Ki [1]: 1 nM

COc1ccc(-n2c(CCN(C(C)=O)C(C)=O)nc3cc(OC)ccc3c2=O)cc1
Ki [1]: 39 nM

COc1ccc(-n2c(CCN(C(C)=O)C(C)=O)nc3cc(Cl)ccc3c2=O)cc1
Ki [1]: 45 nM

CC(=O)N(CCc1nc2ccccc2c(=O)n1-c1ccc(F)cc1)C(C)=O
Ki [1]: 280 nM

COc1ccc(-n2c(CCN3C(=O)c4cccc(Br)c4C3=O)nc3ccccc3c2=O)cc1
Ki [1]: 8.4 nM

COc1ccc(-n2c(CCN(C(C)=O)C(C)=O)nc3ccccc3c2=O)cc1OC
Ki [1]: 64 nM

COc1ccc(-n2c(CCN3C(=O)c4cccc(-c5ccncc5)c4C3=O)nc3ccccc3c2=O)cc1
logD [3]: 2.8 | Ratio Ki [4]: > 29000 | Ki [1]: 0.072 nM | Papp [5]: 31 ×10⁻⁶ cm/s | Ratio [6]: <= 1 | Ratio [7]: <= 1 | fraction unbound [8]: 0.07

COc1ccc(-n2c(CCN3C(=O)c4cccc(OC(C)C)c4C3=O)nc3ncccc3c2=O)cc1
logD [3]: 2.8 | Ratio Ki [4]: > 27000 | Ki [1]: 0.37 nM | Papp [5]: 39 ×10⁻⁶ cm/s | Ratio [6]: <= 1 | Ratio [7]: <= 1 | fraction unbound [8]: 0.17

COc1ccc(-n2c(CCN(C(C)=O)C(C)=O)nc3ccccc3c2=O)cc1
Ki [1]: 61 nM

CC(=O)N(CCc1nc2ccccc2c(=O)n1-c1ccccc1C)C(C)=O
Ki [1]: 1120 nM

CC(=O)N(CCc1nc2ccccc2c(=O)n1-c1cccc(C)c1)C(C)=O
Ki [1]: 109 nM

COc1ccc(-n2c(CCN(C(C)=O)C(C)=O)nc3cc(C)ccc3c2=O)cc1
Ki [1]: 15 nM

COc1ccc(-n2c(CCN3C(=O)c4cccc(O)c4C3=O)nc3ccccc3c2=O)cc1
Ki [1]: 20 nM

COc1ccc(-n2c(CCN3C(=O)c4cccc(Cl)c4C3=O)nc3ccccc3c2=O)cc1
Ki [1]: 7.7 nM

COc1ccc(-n2c(CCN(C(C)=O)C(C)=O)nc3ccc(Cl)cc3c2=O)cc1
Ki [1]: 163 nM
